Data from patent US8633251B2, “Derivatives of aminoalkanols, method of obtaining of aminoalkanols and their use” (Uniwersytet Jagiellonski, priority 2008, dated 2014).
Structures can show the parent of a compound that is named as a salt. Where two headings read alike, the source gives them in different places.

Legend:
[1] = test system: maximal electroshock seizures; test: Maximum Electroshock Seizure (MES) test, mice; assay type: in vivo; settings: mice; for responders at 30 mg/kg / responders at 100 mg/kg / responders at 300 mg/kg: Mus musculus; for responders at 30 mg/kg: dose 30 mg/kg b.w.; for responders at 30 mg/kg / responders at 300 mg/kg: read-out: MES, No. of protected animals/No. of used animals; for responders at 100 mg/kg: read-out: MES, No. of protected animals/No. of used animals (converted)
Outline: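 Mice received compound in methylcellulose i.p. or p.o. at 30, 100 and 300 mg/kg, with some tests at 10 and 3 mg/kg. At 0.5 or 4 h, after tetracaine eye-drops, current was delivered through corneal electrodes (60 Hz, 0.2 s, 50 mA). Groups were one mouse at 30 and 300 mg/kg and three at 100 mg/kg.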

[2] = test system: pentylenetetrazol-induced seizures; test: Subcutaneous Metrazol Test (ScMet), mice; assay type: in vivo
Method: In order to define anticonvulsant activity, screening tests were performed, using animal models of seizures. […] The tests were based on administration of a compound to an animal and after certain time inducing state similar to epilepsy attack in human. Each substance (after dissolving in methylcellulose) was normally tested in doses 30, 100, and 300 mg/kg body weight (b.w.) (mice) or in 30 and 50 mg/kg b.w. (rats) in two possible routes of administration: intraperitoneal (i.p.) or oral (p.o.). Appropriate tests were performed 0.5 and 4 h after administration of the compound. […] (mice) the tests were also performed in doses 10 and 3 mg/kg b.w.
Subcutaneous Metrazol Test (ScMet) is a chemical test, where compounds are tested for activity in absence seizures (petit mal epilepsy). Pentetrazol (metrazol) is considered to block chloride channel in the GABAA receptor complex, therefore at a certain dose in animals it causes myoclonic jerks, next—clonic seizures, and then tonic seizures. The procedure consists in administration of a tested compound and after 0.5 or 4 h subcutaneous administration of pentylenetetrazol in the dose of 85 mg/kg b.w. (mice) or 70 mg/kg b.w. (rats) in a 0.85% solution in 0.9% NaCl. […] Normally the test is performed in single animals.

neurotoxicity (rotarod) = test: Neurotoxicity test (TOX), rotarod, mice; assay type: in vivo
[3] = mice, dose 100 mg/kg b.w., time 0.5 h
[4] = mice, dose 100 mg/kg b.w., time 4 h
[5] = mice, dose 300 mg/kg b.w., time 0.5 h
[6] = dose 100 mg/kg b.w., time 0.5 h
[7] = mice, dose 100 mg/kg b.w., 0.5 h
[8] = mice, dose 300 mg/kg b.w., 0.5 h

## Cc1cccc(C)c1OCCNC(C)(C)CCO (as salt: hydrochloride) [Compound 15, 3N-[(2,6-dimethylphenoxy)ethyl]amino-3-methyl-1-butanol hydrochloride]
other
  melting point: 170 to 172 °C

## Cc1cccc(C)c1OCCN[C@H](CO)C(C)C (as salt: hydrochloride) [Compound 16, L-2N-[(2,6-dimethylphenoxy)ethyl]amino-3-methyl-1-butanol hydrochloride]
other
  melting point: 162 to 164 °C

## Cc1cccc(C)c1OCCNCCCCCO (as salt: hydrochloride) [Compound 17, 5N-[(2,6-dimethylphenoxy)ethyl]amino-1-pentanol hydrochloride]
other
  melting point: 138 to 140 °C

## Cc1cccc(C)c1OCCCN[C@H](C)CO (as salt: hydrochloride) [Compound 52, R-(−)-2N-[(2,6-dimethylphenoxy)propyl]amino-1-propanol hydrochloride]
other
  melting point: 119 to 120 °C

## CCC(O)CNCCCOc1c(C)cccc1C (racemic) [Compound 54, R,S-1N-[(2,6-dimethylphenoxy)propyl]amino-2-butanol]
[1]; dose 100 mg/kg b.w., 0.5 h
  MES, No. of protected animals/No. of used animals: 2/2
[2]; dose 30 mg/kg b.w., 0.5 h
  ScMet, No. of protected animals/No. of used animals: 1/5
[2]; dose 30 mg/kg b.w., 4 h
  ScMet, No. of protected animals/No. of used animals: 1/1
Neurotoxicity (rotarod); mouse, in vivo, 30 mg/kg
  TOX, No. of animals exhibiting motor impairment/no. of used animals: 1/4
Neurotoxicity (rotarod); mouse, in vivo, 300 mg/kg
  TOX, No. of animals exhibiting motor impairment/no. of used animals: 4/4

## CCC(NC(=O)COc1c(C)cccc1C)C(N)=O (racemic) [Compound 66, D,L-2N-[(2,6-dimethylphenoxy)acetyl]aminobutyramide]
other
  melting point: 182 to 184 °C

## Cc1cccc(OCCNCC(O)c2ccccc2)c1C (centres unmarked) [Compound 4, R,S-2N-[(2,3-dimethylphenoxy)ethyl]amino-1-phenylethanol]
[2]; dose 30 mg/kg b.w., time 0.5 h
  ScMet, No. of protected animals/No. of used animals: 1/5
Neurotoxicity (rotarod); [3]
  TOX, No. of animals exhibiting motor impairment/no. of used animals: 4/8
Neurotoxicity (rotarod); [4]
  TOX, No. of animals exhibiting motor impairment/no. of used animals: 1/4
Neurotoxicity (rotarod); [5]
  TOX, No. of animals exhibiting motor impairment/no. of used animals: 3/4

## Cc1cccc(C)c1OCCNC[C@@H](C)O [Compound 10, R-(−)-1N-[(2,6-dimethylphenoxy)ethyl]amino-2-propanol]
[1]; time 0.5 h
  responders at 30 mg/kg: 100%
[1]; dose 100 mg/kg b.w., time 4 h
  responders at 100 mg/kg: 100%
Neurotoxicity (rotarod); mice, dose 30 mg/kg b.w., time 0.5 h
  TOX, No. of animals exhibiting motor impairment/no. of used animals: 1/4
Neurotoxicity (rotarod); [3]
  TOX, No. of animals exhibiting motor impairment/no. of used animals: 8/8
Neurotoxicity (rotarod); [4]
  TOX, No. of animals exhibiting motor impairment/no. of used animals: 1/3
Neurotoxicity (rotarod); [5]
  TOX, No. of animals exhibiting motor impairment/no. of used animals: 4/4
other
  melting point: 76 to 77 °C

## Cc1cccc(C)c1OCCNC[C@H](O)c1ccccc1 [Compound 20, R-(−)-2N-[(2,6-dimethylphenoxy)ethyl]amino-1-phenylethanol]
[1]; time 0.5 h
  responders at 30 mg/kg: 100%
Neurotoxicity (rotarod); [3]
  TOX, No. of animals exhibiting motor impairment/no. of used animals: 8/8
Neurotoxicity (rotarod); [5]
  TOX, No. of animals exhibiting motor impairment/no. of used animals: 4/4
other
  melting point: 78 to 80 °C

## Cc1cccc(OCCCNC(C)(C)CO)c1C [Compound 47, 2N-[(2,3-dimethylphenoxy)propyl]amino-2-methyl-1-propanol]
[1]; [6]
  responders at 100 mg/kg: 100%
Neurotoxicity (rotarod); [3]
  TOX, No. of animals exhibiting motor impairment/no. of used animals: 8/8
Neurotoxicity (rotarod); [4]
  TOX, No. of animals exhibiting motor impairment/no. of used animals: 4/4
Neurotoxicity (rotarod); [5]
  TOX, No. of animals exhibiting motor impairment/no. of used animals: 4/4
other
  melting point: 128 to 130 °C

## Cc1cccc(C)c1OCCCNC(C)(C)CO [Compound 53, 2N-[(2,6-dimethylphenoxy)propyl]amino-2-methyl-1-propanol]
[1]; dose 100 mg/kg b.w., 0.5 h
  responders at 100 mg/kg: 100%
Neurotoxicity (rotarod); mice, dose 30 mg/kg b.w., 0.5 h
  TOX, No. of animals exhibiting motor impairment/no. of used animals: 1/4
Neurotoxicity (rotarod); [7]
  TOX, No. of animals exhibiting motor impairment/no. of used animals: 8/8
Neurotoxicity (rotarod); [8]
  TOX, No. of animals exhibiting motor impairment/no. of used animals: 4/4
other
  melting point: 73 to 75 °C

## Cc1cccc(C)c1OCC(=O)N(C)CCO [Compound 59, R,S-2N-[(2,6-dimethylphenoxy)acetyl]-2N-methylamino-1-ethanol]
[1]; dose 300 mg/kg b.w., 0.5 h
  MES, No. of protected animals/No. of used animals: 1/1
[2]; dose 300 mg/kg b.w., 0.5 h
  ScMet, No. of protected animals/No. of used animals: 1/1

## Cc1cccc(C)c1OCC(=O)N[C@H]1CC[C@H](O)CC1 [Compound 64, trans-4N-[(2,6-dimethylphenoxy)acetyl]amino-1-cyclohexanol]
[1]; dose 100 mg/kg b.w., 0.5 h
  responders at 100 mg/kg: 100%
[1]; dose 300 mg/kg b.w., 0.5 h
  responders at 300 mg/kg: 100%
[2]; Mus musculus, sc, dose 300 mg/kg b.w., 0.5 h, read-out: ScMet, No. of protected animals/No. of used animals
  responders at 300 mg/kg: 100%
Neurotoxicity (rotarod); [7]
  TOX, No. of animals exhibiting motor impairment/no. of used animals: 7/8
Neurotoxicity (rotarod); [8]
  TOX, No. of animals exhibiting motor impairment/no. of used animals: 4/4
other
  melting point: 161 to 162 °C

## Cc1cccc(C)c1OCC(=O)N[C@H](C)C(N)=O [Compound 65, D-2N-[(2,6-dimethylphenoxy)acetyl]aminopropionamide]
[1]; dose 300 mg/kg b.w., 0.5 h
  responders at 300 mg/kg: 100%
[2]; Mus musculus, sc, dose 30 mg/kg b.w., 4 h, read-out: ScMet, No. of protected animals/No. of used animals (converted)
  responders at 30 mg/kg: 20%
Neurotoxicity (rotarod); [7]
  TOX, No. of animals exhibiting motor impairment/no. of used animals: 2/8
Neurotoxicity (rotarod); [8]
  TOX, No. of animals exhibiting motor impairment/no. of used animals: 1/4
other
  melting point: 177 to 178 °C

## Cc1cccc(Cl)c1OCC(=O)NCC(C)O (centres unmarked) [Compound 68, R,S-1N-[(2-chlor-6-methylphenoxy)acetyl]amino-2-propanol]
[1]; dose 300 mg/kg b.w., 0.5 h
  MES, No. of protected animals/No. of used animals: 1/1
[1]; i.p., time not given
  ED50 (MES, mice, i.p.): 97.93 mg/kg b.w.
[2]; dose 300 mg/kg b.w., 0.5 h
  ScMet, No. of protected animals/No. of used animals: 1/1
Neurotoxicity (rotarod); [8]
  TOX, No. of animals exhibiting motor impairment/no. of used animals: 4/4

## CCC(O)CNC(=O)COc1c(C)cccc1Cl (centres unmarked) [Compound 72, R,S-1N-[(2-chlor-6-methylphenoxy)acetyl]amino-2-butanol]
[1]; dose 300 mg/kg b.w., 0.5 h
  MES, No. of protected animals/No. of used animals: 1/1
[2]; dose 300 mg/kg b.w., 0.5 h
  ScMet, No. of protected animals/No. of used animals: 1/1
Neurotoxicity (rotarod); [8]
  TOX, No. of animals exhibiting motor impairment/no. of used animals: 4/4

## CCC(CO)NC(=O)COc1c(C)cccc1Cl (centres unmarked) [Compound 73, R,S-2N-[(2-chlor-6-methylphenoxy)acetyl]amino-1-butanol]
[1]; dose 300 mg/kg b.w., 0.5 h
  MES, No. of protected animals/No. of used animals: 1/1
[1]; dose 300 mg/kg b.w., 4 h
  MES, No. of protected animals/No. of used animals: 1/1
[2]; dose 100 mg/kg b.w., 0.5 h
  ScMet, No. of protected animals/No. of used animals: 3/5
[2]; dose 300 mg/kg b.w., 0.5 h
  ScMet, No. of protected animals/No. of used animals: 1/1
Neurotoxicity (rotarod); [8]
  TOX, No. of animals exhibiting motor impairment/no. of used animals: 4/4

## Cc1cc(Cl)ccc1OCC(=O)NCC(C)O (centres unmarked) [Compound 80, R,S-1N-[(4-chlor-2-methylphenoxy)acetyl]amino-2-propanol]
[1]; dose 300 mg/kg b.w., 0.5 h
  MES, No. of protected animals/No. of used animals: 1/1
[2]; dose 300 mg/kg b.w., 0.5 h
  ScMet, No. of protected animals/No. of used animals: 1/1
Neurotoxicity (rotarod); [8]
  TOX, No. of animals exhibiting motor impairment/no. of used animals: 4/4

## CCC(O)CNC(=O)COc1ccc(Cl)cc1C (centres unmarked) [Compound 81, R,S-1N-[(4-chlor-2-methylphenoxy)acetyl]amino-2-butanol]
[1]; dose 300 mg/kg b.w., 0.5 h
  MES, No. of protected animals/No. of used animals: 1/1
[2]; dose 300 mg/kg b.w., 0.5 h
  ScMet, No. of protected animals/No. of used animals: 1/1
Neurotoxicity (rotarod); [8]
  TOX, No. of animals exhibiting motor impairment/no. of used animals: 4/4

## R,S-2N-[(4-chlor-2-methylphenoxy)ethyl]amino-1-propanol [Compound 33]
[1]; [6]
  MES, No. of protected animals/No. of used animals: 3/3
Neurotoxicity (rotarod); [3]
  TOX, No. of animals exhibiting motor impairment/no. of used animals: 4/8
Neurotoxicity (rotarod); [5]
  TOX, No. of animals exhibiting motor impairment/no. of used animals: 4/4

## R-(+)-2N-[(2,6-dimethylphenoxy)acetyl]amino-1-propanol [Compound 61]
[1]; dose 300 mg/kg b.w., 0.5 h
  MES, No. of protected animals/No. of used animals: 1/1
Neurotoxicity (rotarod); [8]
  TOX, No. of animals exhibiting motor impairment/no. of used animals: 2/4
